Reference: patent US20070004660A1, “Synergistic Modulation of Flt3 Kinase Using Alkylquinolines and Alkylquinazolines” (priority 2005, published 2007)
pIC50: −log10 of the molar value.

Tests used:
wild-type FLT3 receptor = biological target: T1, wild-type FLT3 receptor (Homo sapiens, UniProt P36888); test: Cell-based FLT3 receptor ELISA (FLT ligand-induced phosphorylation in Baf3 FLT3 cells); conditions: 100 ng/mL Flt ligand, uncertainty ±20%
T1 construct: host or cells: Baf3 (murine B cell lymphoma line), stably transfected
T1 sequence (P36888 27-993): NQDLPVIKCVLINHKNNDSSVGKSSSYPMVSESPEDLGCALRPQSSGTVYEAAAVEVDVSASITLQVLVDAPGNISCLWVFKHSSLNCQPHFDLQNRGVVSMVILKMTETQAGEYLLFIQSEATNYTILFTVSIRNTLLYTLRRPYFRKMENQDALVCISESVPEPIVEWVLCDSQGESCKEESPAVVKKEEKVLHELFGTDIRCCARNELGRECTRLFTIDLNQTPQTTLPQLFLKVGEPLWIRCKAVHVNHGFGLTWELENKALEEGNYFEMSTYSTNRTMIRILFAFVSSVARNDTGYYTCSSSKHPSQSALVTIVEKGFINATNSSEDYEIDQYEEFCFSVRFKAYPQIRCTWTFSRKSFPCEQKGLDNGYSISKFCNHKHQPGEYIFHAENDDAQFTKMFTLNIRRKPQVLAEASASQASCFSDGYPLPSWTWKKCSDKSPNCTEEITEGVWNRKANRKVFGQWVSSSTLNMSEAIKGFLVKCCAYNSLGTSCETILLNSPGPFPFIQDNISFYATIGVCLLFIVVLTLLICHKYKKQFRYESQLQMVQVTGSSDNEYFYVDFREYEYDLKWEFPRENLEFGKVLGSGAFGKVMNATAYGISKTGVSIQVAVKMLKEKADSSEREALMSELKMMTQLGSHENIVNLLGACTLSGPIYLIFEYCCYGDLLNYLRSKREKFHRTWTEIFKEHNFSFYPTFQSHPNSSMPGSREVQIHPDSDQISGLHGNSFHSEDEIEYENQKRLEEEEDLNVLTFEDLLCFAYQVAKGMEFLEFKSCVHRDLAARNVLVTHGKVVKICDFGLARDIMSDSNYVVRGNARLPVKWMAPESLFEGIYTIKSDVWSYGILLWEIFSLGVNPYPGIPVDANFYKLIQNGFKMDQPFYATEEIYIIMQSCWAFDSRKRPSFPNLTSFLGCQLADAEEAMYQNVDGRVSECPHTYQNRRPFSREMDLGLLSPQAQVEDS
Procedure: Specific cellular inhibition of FLT ligand-induced wild-type FLT3 phosphorylation was measured in the following manner: Baf3 FLT3 cells overexpressing the FLT3 receptor were obtained from Dr. Michael Heinrich (Oregon Health and Sciences University). The Baf3 FLT3 cell lines were created by stable transfection of parental Baf3 cells (a murine B cell lymphoma line dependent on the cytokine IL-3 for growth) with wild-type FLT3. Cells were selected for their ability to grow in the absence of IL-3 and in the presence of FLT3 ligand. Baf3 cells were maintained in RPMI 1640 with 10% FBS, penn/strep and 10 ng/ml FLT ligand at 37° C., 5% CO2. To measure direct inhibition of the wild-type FLT3 receptor activity and phosphorylation a sandwich ELISA method was developed similar to those developed for other RTKs (see Sadick, M D, Sliwkowski, M X, Nuijens, A, Bald, L, Chiang, N, Lofgren, J A, Wong W L T. Analysis of Heregulin-Induced ErbB2 Phosphorylation with a High-Throughput Kinase Receptor Activation Enzyme-Linked Immunsorbent Assay, Analytical Biochemistry. 1996; 235:207-214 and Baumann C A, Zeng L, Donatelli R R, Maroney A C. Development of a quantitative, high-throughput cell-based enzyme-linked immunosorbent assay for detection of colony-stimulating factor-1 receptor tyrosine kinase inhibitors. J Biochem Biophys Methods. 2004; 60:69-79.). 200 μL of Baf3FLT3 cells (1×10^6 /mL) were plated in 96 well dishes in RPMI 1640 with 0.5% serum and 0.01 ng/mL IL-3 for 16 hours prior to 1 hour compound or DMSO vehicle incubation. Cells were treated with 100 ng/mL Flt ligand (R&D Systems Cat# 308-FK) for 10 min. at 37° C. Cells were pelleted, washed and lysed in 100 ul lysis buffer (50 mM Hepes, 150 mM NaCl, 10% Glycerol, 1% Triton-X-100, 10 mM NaF, 1 mM EDTA, 1.5 mM MgCl2, 10 mM NaPyrophosphate) supplemented with phosphatase (Sigma Cat# P2850) and protease inhibitors (Sigma Cat #P8340). Lysates were cleared by centrifugation at 1000×g for 5 minutes at 4° C. Cell lysates were transferred to white wall 96 well microtiter (Costar #9018) plates coated with 50 ng/well anti-FLT3 antibody (Santa Cruz Cat# sc-480) and blocked with SeaBlock reagent (Pierce Cat#37527). Lysates were incubated at 4° C. for 2 hours. Plates were washed 3× with 200 ul/well PBS/0.1% Triton-X-100. Plates were then incubated with 1:8000 dilution of HRP-conjugated anti-phosphotyrosine antibody (Clone 4G10, Upstate Biotechnology Cat#16-105) for 1 hour at room temperature. Plates were washed 3× with 200 ul/well PBS/0.1% Triton-X-100. Signal detection with Super Signal Pico reagent (Pierce Cat#37070) was done according to manufacturer's instruction with a Berthold microplate luminometer. All data points are an average of triplicate samples. […] Inhibition and IC50 data analysis was done with GraphPad Prism using a non-linear regression fit with a multiparamater, sigmoidal dose-response (variable slope) equation.

MV4-11 cells = test: Inhibition of MV4-11 cell proliferation (CellTiterGlo, 72 h); format: cell-based; conditions: Homo sapiens; 72 h growth inhibition; uncertainty ±20%
Procedure: MV4-11 cells cannot grow and survive without active FLT3ITD.
To measure proliferation inhibition by test compounds, the luciferase based CellTiterGlo reagent (Promega), which quantifies total cell number based on total cellular ATP concentration, was used. Cells are plated at 10,000 cells per well in 100 ul of in RPMI media containing penn/strep, 10% FBS and 1 ng/ml GM-CSF or 1 ng/ml IL-3 for MV4-11 and Baf3 cells respectively.
Compound dilutions or 0.1% DMSO (vehicle control) are added to cells and the cells are allowed to grow for 72 hours at standard cell growth conditions (37° C., 5% CO2). For activity measurements in MV4-11 cells grown in 50% plasma, cells were plated at 10,000 cells per well in a 1:1 mixture of growth media and human plasma (final volume of 100 μL). To measure total cell growth an equal volume of CellTiterGlo reagent was added to each well, according to the manufacturer's instructions, and luminescence was quantified. Total cell growth was quantified as the difference in luminescent counts (relative light units, RLU) of cell number at Day 0 compared to total cell number at Day 3 (72 hours of growth and/or compound treatment). One hundred percent inhibition of growth is defined as an RLU equivalent to the Day 0 reading. Zero percent inhibition was defined as the RLU signal for the DMSO vehicle control at Day 3 of growth. All data points are an average of triplicate samples. […] Inhibition and IC50 data analysis was done with GraphPad Prism using a non-linear regression fit with a multiparamater, sigmoidal dose-response (variable slope) equation.
MV4-11 cells express the FLT3 internal tandem duplication mutation, and thus are entirely dependent upon FLT3 activity for growth. […] In contrast, the Baf3 cell proliferation is driven by the cytokine IL-3 and thus are used as a non-specific toxicity control for test compounds.

[1] = biological target: T2, isolated kinase domain of the human FLT3 receptor (a.a. 571-993) (Homo sapiens, UniProt P36888); test: FLT3 fluorescence polarization kinase assay; format: biochemical; conditions: 150 uM ATP; uncertainty ±10%
T2 construct: human FLT3 receptor (a.a. 571-993)
T2 sequence (P36888 571-993): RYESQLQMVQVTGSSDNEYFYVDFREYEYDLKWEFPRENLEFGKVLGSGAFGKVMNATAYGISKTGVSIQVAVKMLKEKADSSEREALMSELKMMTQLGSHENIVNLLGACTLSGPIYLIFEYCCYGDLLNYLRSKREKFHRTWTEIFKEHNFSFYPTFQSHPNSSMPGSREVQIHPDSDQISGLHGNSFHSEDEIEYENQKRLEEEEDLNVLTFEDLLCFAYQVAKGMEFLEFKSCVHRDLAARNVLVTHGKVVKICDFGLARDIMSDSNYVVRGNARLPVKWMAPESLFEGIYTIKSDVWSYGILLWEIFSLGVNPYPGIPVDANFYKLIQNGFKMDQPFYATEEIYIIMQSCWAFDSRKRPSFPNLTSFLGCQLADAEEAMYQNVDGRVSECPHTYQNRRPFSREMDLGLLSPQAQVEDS
Procedure: The FLT3 FP assay utilizes the fluorescein-labeled phosphopeptide and the anti-phosphotyrosine antibody included in the Panvera Phospho-Tyrosine Kinase Kit (Green) supplied by Invitrogen. When FLT3 phosphorylates polyGlu4Tyr, the fluorescein-labeled phosphopeptide is displaced from the anti-phosphotyrosine antibody by the phosphorylated poly Glu4Tyr, thus decreasing the FP value. The FLT3 kinase reaction is incubated at room temperature for 30 minutes under the following conditions: 10 nM FLT3 571-993, 20 ug/mL poly Glu4Tyr, 150 uM ATP, 5 mM MgCl2, 1% compound in DMSO. The kinase reaction is stopped with the addition of EDTA. The fluorescein-labeled phosphopeptide and the anti-phosphotyrosine antibody are added and incubated for 30 minutes at room temperature.
All data points are an average of triplicate samples. Inhibition and IC50 data analysis was done with GraphPad Prism using a non-linear regression fit with a multiparamater, sigmoidal dose-response (variable slope) equation.

Question: `COc1cc2ncnc(C3CCN(C(=O)Nc4ccc(Cl)cc4)CC3)c2cc1OC` [Example 49, 4-(6,7-Dimethoxy-quinazolin-4-yl)-piperidine-1-carboxylic acid (4-chloro-phenyl)-amide] was tested. Which pIC50 (wild-type FLT3 receptor) did it give?
Answer: < 5.52

Question: What about the pIC50 (MV4-11 cells) of the same molecule?
Answer: 5.15

Question: How did the pIC50 (wild-type FLT3 receptor) turn out when `O=C(Nc1ccc(N2CCOCC2)cc1)N1CCC(c2ncnc3cc(OCCCN4CCNCC4)ccc23)CC1` [Example 123, 4-[7-(3-Piperazin-1-yl-propoxy)-quinazolin-4-yl]-piperidine-1-carboxylic acid (4-morpholin-4-yl-phenyl)-amide] was run?
Answer: 8.70

Question: And the pIC50 [1]?
Answer: 8.10

Question: `COC[C@H]1CCCN1c1ccc2c(C3CCN(C(=O)Nc4ccc(N5CCOCC5)cc4)CC3)ncnc2c1` [Example 130, (R)-4-[7-(2-Methoxymethyl-pyrrolidin-1-yl)-quinazolin-4-yl]-piperidine-1-carboxylic acid (4-morpholin-4-yl-phenyl)-amide] was tested. Which pIC50 (wild-type FLT3 receptor) did it give?
Answer: 6.23

Question: And the pIC50 [1]?
Answer: 6.20

Question: How did the pIC50 (wild-type FLT3 receptor) turn out when `CN1CCC(Oc2ccc3c(C4CCN(C(=O)Nc5ccc(N6CCOCC6)cc5)CC4)ncnc3c2)CC1` [Example 127, 4-[7-(1-Methyl-piperidin-4-yloxy)-quinazolin-4-yl]-piperidine-1-carboxylic acid (4-morpholin-4-yl-phenyl)-amide] was run?
Answer: 7.43

Question: And the pIC50 [1]?
Answer: 6.59

Question: How did the pIC50 (wild-type FLT3 receptor) turn out when `COc1cc2ncnc(C3CCN(C(=O)Nc4ccc(C5CCNCC5)cc4)CC3)c2cc1OC` [Example 64, 4-(6,7-Dimethoxy-quinazolin-4-yl)-piperidine-1-carboxylic acid (4-piperidin-4-yl-phenyl)-amide] was run?
Answer: 6.45

Question: What about the pIC50 (MV4-11 cells) of the same molecule?
Answer: 6.48
